Results on 8 compounds are retold here after patent US9580444B2, “Polycyclic pyrazolinone derivative and herbicide comprising same as effective component thereof” (priority 2013, dated 2017).

Holding throughout (assay type): in vivo
For data set [1], the system named is other annual broad leaf weeds (Lindernia procumbens, Rotala indica, Elatine triandra). As to the kind of experiment: Test Example-1: herbicidal effect by a treatment before weeds are generated under submerged conditions. The note with it: 500 g a.i/ha, pre-emergence treatment, about 15 days after treatment, score 0-5. The method in brief:
(§1)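 Weed seeds were sown in puddled paddy soil under flooding, then the diluted formulated compound was added to the water the same day at a predetermined dosage, and weed control was rated roughly 15 days afterwards in six stages (0–5).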

Data set [2] has as its system Scirpus juncoides (bulrush). The description is as above. Conditions: 500 g a.i/ha, pre-emergence treatment, about 15 days after treatment, score 0-5. The method in brief: as §1
Data set [3] deals with Eleocharis acicularis (needle spikerush). The description is as above. Conditions: 500 g a.i/ha, pre-emergence treatment, about 15 days after treatment, score 0-5. The procedure, abridged:
as §1

For data set [4], the system named is Monochoria vaginalis (monochoria). The data set is described as above. Conditions: 500 g a.i/ha, pre-emergence treatment, about 15 days after treatment, score 0-5. The method in brief:
as §1

Data set [5] relates to Echinochloa oryzicola (barnyard grass). The data set is described as above. The note with it: 500 g a.i/ha, pre-emergence treatment, about 15 days after treatment, score 0-5. The procedure, abridged: as §1
Data set [6] deals with Cyperus difformis (smallflower umbrella plant). The description is as above. The note with it: 500 g a.i/ha, pre-emergence treatment, about 15 days after treatment, score 0-5. The method in brief: as §1
The test system of data set [7] is Abutilon theophrasti (velvetleaf). In words: Test Example-4: herbicidal effect by a foliage treatment after weeds are generated under upland field conditions. Conditions: 500 g a.i/ha, foliage treatment after emergence, about 14 days after treatment, score 0-5. The method in brief:
(§2)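 Read-out is a visual six-stage score from 0 to 5 for weed control or corn phytotoxicity, taken about 14 days after a uniform foliar spray. Plants had grown 14 days from seed in upland soil before the compound was applied at a predetermined dosage in 4000 L water per hectare.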

The test system of data set [8] is Chenopodium album (common lambsquarters). Described as above. The note with it: 500 g a.i/ha, foliage treatment after emergence, about 14 days after treatment, score 0-5. The procedure, abridged: as §2
Data set [9] has as its system Amaranthus viridis (green amaranthus). The description is as above. The note with it: 500 g a.i/ha, foliage treatment after emergence, about 14 days after treatment, score 0-5. The procedure, abridged:
as §2

A further data set has as its system corn. In words: Test Example-4: phytotoxicity by a foliage treatment after weeds are generated under upland field conditions. Conditions: 500 g a.i/ha, foliage treatment after emergence, about 14 days after treatment, score 0-5. The method in brief:
as §2

As to `CC#CCOc1cc(-c2c(Cl)n3n(c2=O)CCCC3)c(F)cc1F` [Example 1-115], the “Herbicidal effect Broadleaf weed” value in [1] is given as 5 (Herbicidal effect/phytotoxicity was 90% or greater). Also, the “Herbicidal effect Scirpus juncoides” value in data set [2] is reported as 5 (Herbicidal effect/phytotoxicity was 90% or greater). Further, the “Herbicidal effect Eleocharis acicularis” value in data set [3] is recorded as 5 (Herbicidal effect/phytotoxicity was 90% or greater). In [4], the “Herbicidal effect Monochoria vaginalis” value is listed as 5 (Herbicidal effect/phytotoxicity was 90% or greater). Also, in [5], the “Herbicidal effect Echinochloa oryzicola” value is 5 (Herbicidal effect/phytotoxicity was 90% or greater). Further, the “Herbicidal effect Cyperus difformis” value in data set [6] is given as 5 (Herbicidal effect/phytotoxicity was 90% or greater). For the same compound, the “Herbicidal effect Abutilon theophrast” value in [7] was 5 (Herbicidal effect/phytotoxicity was 90% or greater). The “Herbicidal effect Chenopodium album” value in data set [8] is given as 5 (Herbicidal effect/phytotoxicity was 90% or greater). In data set [9], the “Herbicidal effect Amaranthus viridis” value is recorded as 5 (Herbicidal effect/phytotoxicity was 90% or greater). Besides, in the data set with corn, the “Phytotoxicity Corn” value was 3 (Herbicidal effect/phytotoxicity was 50% to 70%).
As for `COc1cc(-c2c(Cl)n3n(c2=O)CCCC3)c(F)cc1F` [Example 1-87], the “Herbicidal effect Broadleaf weed” value in [1] is 5 (Herbicidal effect/phytotoxicity was 90% or greater). Besides, the “Herbicidal effect Scirpus juncoides” value in data set [2] is given as 5 (Herbicidal effect/phytotoxicity was 90% or greater). For the same compound, in data set [3], the “Herbicidal effect Eleocharis acicularis” value is reported as 5 (Herbicidal effect/phytotoxicity was 90% or greater). The “Herbicidal effect Monochoria vaginalis” value in [4] is listed as 5 (Herbicidal effect/phytotoxicity was 90% or greater). For the same compound, the “Herbicidal effect Echinochloa oryzicola” value in data set [5] was 5 (Herbicidal effect/phytotoxicity was 90% or greater). In data set [6], the “Herbicidal effect Cyperus difformis” value is recorded as 5 (Herbicidal effect/phytotoxicity was 90% or greater). For the same compound, the “Herbicidal effect Abutilon theophrast” value in data set [7] is 5 (Herbicidal effect/phytotoxicity was 90% or greater). Besides, in data set [8], the “Herbicidal effect Chenopodium album” value was 5 (Herbicidal effect/phytotoxicity was 90% or greater). In addition, the “Herbicidal effect Amaranthus viridis” value in [9] is given as 5 (Herbicidal effect/phytotoxicity was 90% or greater). Besides, the “Phytotoxicity Corn” value in the data set on corn is reported as 2 (Herbicidal effect/phytotoxicity was 30% to 50%).
With `C#CCOc1cc(-c2c(Cl)n3n(c2=O)CCCC3)ccc1Cl` [Example 1-62], the “Herbicidal effect Broadleaf weed” value in [1] is 5 (Herbicidal effect/phytotoxicity was 90% or greater). Also, in data set [2], the “Herbicidal effect Scirpus juncoides” value was 5 (Herbicidal effect/phytotoxicity was 90% or greater). In data set [3], the “Herbicidal effect Eleocharis acicularis” value was 5 (Herbicidal effect/phytotoxicity was 90% or greater). Further, the “Herbicidal effect Monochoria vaginalis” value in [4] is on record as 5 (Herbicidal effect/phytotoxicity was 90% or greater). For the same compound, in data set [5], the “Herbicidal effect Echinochloa oryzicola” value is 5 (Herbicidal effect/phytotoxicity was 90% or greater). Besides, in data set [6], the “Herbicidal effect Cyperus difformis” value is 5 (Herbicidal effect/phytotoxicity was 90% or greater). In data set [7], the “Herbicidal effect Abutilon theophrast” value was 5 (Herbicidal effect/phytotoxicity was 90% or greater). Further, the “Herbicidal effect Chenopodium album” value in [8] was 5 (Herbicidal effect/phytotoxicity was 90% or greater). Also, the “Herbicidal effect Amaranthus viridis” value in data set [9] was 5 (Herbicidal effect/phytotoxicity was 90% or greater). In the data set with corn, the “Phytotoxicity Corn” value is reported as 0 (Herbicidal effect/phytotoxicity was 0% to 10%).
Take `COc1cc(-c2c(Cl)n3n(c2=O)CCCC3)c(F)cc1Cl` [Example 1-140]: the “Herbicidal effect Broadleaf weed” value in data set [1] is reported as 5 (Herbicidal effect/phytotoxicity was 90% or greater). The “Herbicidal effect Scirpus juncoides” value in [2] is reported as 5 (Herbicidal effect/phytotoxicity was 90% or greater). Also, the “Herbicidal effect Eleocharis acicularis” value in data set [3] is 5 (Herbicidal effect/phytotoxicity was 90% or greater). Moreover, the “Herbicidal effect Monochoria vaginalis” value in data set [4] is on record as 5 (Herbicidal effect/phytotoxicity was 90% or greater). Moreover, in data set [5], the “Herbicidal effect Echinochloa oryzicola” value is reported as 5 (Herbicidal effect/phytotoxicity was 90% or greater). Further, the “Herbicidal effect Cyperus difformis” value in [6] is reported as 5 (Herbicidal effect/phytotoxicity was 90% or greater). Moreover, the “Herbicidal effect Abutilon theophrast” value in data set [7] was 5 (Herbicidal effect/phytotoxicity was 90% or greater). Moreover, the “Herbicidal effect Chenopodium album” value in [8] is 5 (Herbicidal effect/phytotoxicity was 90% or greater). Also, the “Herbicidal effect Amaranthus viridis” value in data set [9] is reported as 5 (Herbicidal effect/phytotoxicity was 90% or greater). Further, the “Phytotoxicity Corn” value in the data set on corn is listed as 2 (Herbicidal effect/phytotoxicity was 30% to 50%).
On to `CC#CCOc1cc(-c2c(Cl)n3n(c2=O)CCCC3)c(F)cc1Cl` [Example 1-246], for which the “Herbicidal effect Broadleaf weed” value in [1] was 5 (Herbicidal effect/phytotoxicity was 90% or greater). Besides, the “Herbicidal effect Scirpus juncoides” value in [2] was 5 (Herbicidal effect/phytotoxicity was 90% or greater). In addition, the “Herbicidal effect Eleocharis acicularis” value in data set [3] is 5 (Herbicidal effect/phytotoxicity was 90% or greater). In data set [4], the “Herbicidal effect Monochoria vaginalis” value is 5 (Herbicidal effect/phytotoxicity was 90% or greater). For the same compound, the “Herbicidal effect Echinochloa oryzicola” value in data set [5] is given as 5 (Herbicidal effect/phytotoxicity was 90% or greater). In data set [6], the “Herbicidal effect Cyperus difformis” value is reported as 5 (Herbicidal effect/phytotoxicity was 90% or greater). For the same compound, in data set [7], the “Herbicidal effect Abutilon theophrast” value was 5 (Herbicidal effect/phytotoxicity was 90% or greater). The “Herbicidal effect Chenopodium album” value in [8] is 5 (Herbicidal effect/phytotoxicity was 90% or greater). Also, the “Herbicidal effect Amaranthus viridis” value in data set [9] was 5 (Herbicidal effect/phytotoxicity was 90% or greater). For the same compound, the “Phytotoxicity Corn” value in the data set with corn is recorded as 1 (Herbicidal effect/phytotoxicity was 10% to 30%).
As to `C#CCOc1cc(-c2c(Cl)n3n(c2=O)CCCC3)c(F)cc1F` [Example 1-113], in data set [1], the “Herbicidal effect Broadleaf weed” value is on record as 5 (Herbicidal effect/phytotoxicity was 90% or greater). Moreover, the “Herbicidal effect Scirpus juncoides” value in data set [2] is 5 (Herbicidal effect/phytotoxicity was 90% or greater). Besides, in [3], the “Herbicidal effect Eleocharis acicularis” value is 5 (Herbicidal effect/phytotoxicity was 90% or greater). In addition, the “Herbicidal effect Monochoria vaginalis” value in data set [4] was 5 (Herbicidal effect/phytotoxicity was 90% or greater). Further, in data set [5], the “Herbicidal effect Echinochloa oryzicola” value is listed as 5 (Herbicidal effect/phytotoxicity was 90% or greater). Moreover, the “Herbicidal effect Cyperus difformis” value in data set [6] was 5 (Herbicidal effect/phytotoxicity was 90% or greater). Besides, the “Herbicidal effect Abutilon theophrast” value in data set [7] is 5 (Herbicidal effect/phytotoxicity was 90% or greater). In addition, the “Herbicidal effect Chenopodium album” value in data set [8] is on record as 5 (Herbicidal effect/phytotoxicity was 90% or greater). Further, the “Herbicidal effect Amaranthus viridis” value in data set [9] is on record as 5 (Herbicidal effect/phytotoxicity was 90% or greater). Further, the “Phytotoxicity Corn” value in the data set with corn is 3 (Herbicidal effect/phytotoxicity was 50% to 70%).
As for `CCOc1cc(-c2c(Cl)n3n(c2=O)CCCC3)c(F)cc1Cl` [Example 1-146], the “Herbicidal effect Broadleaf weed” value in data set [1] was 5 (Herbicidal effect/phytotoxicity was 90% or greater). Also, the “Herbicidal effect Scirpus juncoides” value in data set [2] was 5 (Herbicidal effect/phytotoxicity was 90% or greater). Besides, in data set [3], the “Herbicidal effect Eleocharis acicularis” value is on record as 5 (Herbicidal effect/phytotoxicity was 90% or greater). Besides, the “Herbicidal effect Monochoria vaginalis” value in data set [4] is 5 (Herbicidal effect/phytotoxicity was 90% or greater). In [5], the “Herbicidal effect Echinochloa oryzicola” value is given as 5 (Herbicidal effect/phytotoxicity was 90% or greater). Also, the “Herbicidal effect Cyperus difformis” value in [6] was 5 (Herbicidal effect/phytotoxicity was 90% or greater). Moreover, in data set [7], the “Herbicidal effect Abutilon theophrast” value is reported as 5 (Herbicidal effect/phytotoxicity was 90% or greater). Further, in data set [8], the “Herbicidal effect Chenopodium album” value was 5 (Herbicidal effect/phytotoxicity was 90% or greater). Moreover, the “Herbicidal effect Amaranthus viridis” value in data set [9] is on record as 5 (Herbicidal effect/phytotoxicity was 90% or greater). In addition, the “Phytotoxicity Corn” value in the data set on corn is 0 (Herbicidal effect/phytotoxicity was 0% to 10%).
Turning to `O=c1c(-c2ccc(Cl)c(OC3CCCC3)c2)c(Cl)n2n1CCCC2` [Example 1-52], the “Herbicidal effect Broadleaf weed” value in data set [1] is recorded as 5 (Herbicidal effect/phytotoxicity was 90% or greater). Also, the “Herbicidal effect Scirpus juncoides” value in [2] is on record as 5 (Herbicidal effect/phytotoxicity was 90% or greater). Besides, the “Herbicidal effect Eleocharis acicularis” value in data set [3] is on record as 5 (Herbicidal effect/phytotoxicity was 90% or greater). For the same compound, the “Herbicidal effect Monochoria vaginalis” value in data set [4] is 5 (Herbicidal effect/phytotoxicity was 90% or greater). Moreover, the “Herbicidal effect Echinochloa oryzicola” value in [5] is listed as 5 (Herbicidal effect/phytotoxicity was 90% or greater). In addition, the “Herbicidal effect Cyperus difformis” value in data set [6] is on record as 5 (Herbicidal effect/phytotoxicity was 90% or greater). Also, in [7], the “Herbicidal effect Abutilon theophrast” value is given as 5 (Herbicidal effect/phytotoxicity was 90% or greater). Moreover, in data set [8], the “Herbicidal effect Chenopodium album” value is listed as 5 (Herbicidal effect/phytotoxicity was 90% or greater). Further, the “Herbicidal effect Amaranthus viridis” value in data set [9] is on record as 5 (Herbicidal effect/phytotoxicity was 90% or greater). The “Phytotoxicity Corn” value with corn is listed as 0 (Herbicidal effect/phytotoxicity was 0% to 10%).
